According to ChEMBL document CHEMBL1140165, “Rotationally constrained 2,4-diamino-5,6-disubstituted pyrimidines: a new class of histamine H4 receptor antagonists with improved druglikeness and in vivo efficacy in pain and inflammation models” (J Med Chem, 2008):
The source made the active and inactive calls. No cut-off for these calls is given here.

Tests used:
Rattus norvegicus [1] = assay: Antinociceptive efficacy in spinal nerve ligated Sprague-Dawley rat assessed as reduction of neuropathic pain in left side paw at 100 umol/kg, ip administered 30 mins before testing relative to control; format: functional
Cytochrome P450 3A4 = Cytochrome P450 3A4 (Homo sapiens, UniProt P08684); assay: Inhibition of CYP3A4 upto 10 uM; format: ADME
Liver microsomes [2] = assay: Metabolic stability in rat liver microsomes; format: ADME, Microsome
[3] = target: T1, Prostaglandin G/H synthase 2 (Homo sapiens) (UniProt P35354); assay: Binding affinity at COX2
T1 sequence (whole entry): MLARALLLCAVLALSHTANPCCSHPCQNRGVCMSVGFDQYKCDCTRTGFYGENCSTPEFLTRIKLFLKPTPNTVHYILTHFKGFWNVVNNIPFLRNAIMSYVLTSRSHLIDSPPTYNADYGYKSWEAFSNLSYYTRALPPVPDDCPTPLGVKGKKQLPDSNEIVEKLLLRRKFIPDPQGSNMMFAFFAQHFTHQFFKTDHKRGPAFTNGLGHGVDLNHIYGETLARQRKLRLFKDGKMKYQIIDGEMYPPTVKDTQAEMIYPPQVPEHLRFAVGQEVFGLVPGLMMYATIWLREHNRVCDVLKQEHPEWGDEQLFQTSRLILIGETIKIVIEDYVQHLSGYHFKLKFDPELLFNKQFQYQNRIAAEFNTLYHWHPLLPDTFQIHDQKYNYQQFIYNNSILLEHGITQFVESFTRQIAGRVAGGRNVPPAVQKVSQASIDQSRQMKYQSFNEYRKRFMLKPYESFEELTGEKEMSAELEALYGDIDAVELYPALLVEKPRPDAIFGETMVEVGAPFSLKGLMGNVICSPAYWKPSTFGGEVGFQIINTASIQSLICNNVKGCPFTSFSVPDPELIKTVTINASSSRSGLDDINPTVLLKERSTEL

[4] = Selectivity ratio of Ki for human histamine H4 receptor to Ki for dopamine D2 receptor
Mus musculus [5] = assay: Antiinflammatory activity against ip dosed BALB/c mouse assessed as inhibition of zymosan-induced peritonitis after 2 hrs pretreated 30 mins before zymosan challenge; format: functional
[6] = Selectivity ratio of Ki for human histamine H4 receptor to Ki for histamine H1 receptor
[7] = Protein binding in rat; format: ADME, organism-based; conditions: in vivo, read-out: PB (converted)
[8] = Selectivity ratio of Ki for human histamine H4 receptor to Ki for histamine H2 receptor
[9] = Metabolic stability in mouse liver microsomes; format: ADME, Microsome
[10] = Selectivity ratio of Ki for human histamine H4 receptor to Ki for 5HT2A receptor
[11] = target: Mu-type opioid receptor (Homo sapiens) (UniProt P35372); assay: Binding affinity to mu opioid receptor
Histamine H4 receptor [12] = target: T2, Histamine H4 receptor (Rattus norvegicus, UniProt Q91ZY1); assay: Antagonist activity at rat histamine H4 receptor expressed in HEK293 cells assessed as inhibition of histamine-induced intracellular calcium elevation by FLIPR assay; format: functional, cell-based
Histamine H4 receptor [13] = target: T2, Histamine H4 receptor; assay: Displacement of [3H]histamine from rat histamine H4 receptor expressed in HEK293 cells; format: cell-based
Histamine H4 receptor [14] = target: T3, Histamine H4 receptor (Homo sapiens, UniProt Q9H3N8); conditions: HEK293
[15] = Selectivity ratio of Ki for human histamine H4 receptor to Ki for 5HT1A receptor
[16] = Selectivity ratio of Ki for human histamine H4 receptor to Ki for adrenergic alpha1 receptor
[17] = target: Prostaglandin G/H synthase 1 (Homo sapiens) (UniProt P23219); assay: Binding affinity at COX1
[18] = target: Cannabinoid receptor 1 (Homo sapiens) (UniProt P21554); assay: Binding affinity to CB1 receptor
Cytochrome P450 2D6 = Cytochrome P450 2D6 (Homo sapiens, UniProt P10635); assay: Inhibition of CYP2D6 upto 10 uM; format: ADME
Histamine H4 receptor [19] = target: T4, Histamine H4 receptor (Mus musculus, UniProt Q91ZY2); assay: Antagonist activity at mouse histamine H4 receptor expressed in HEK293 cells assessed as inhibition of histamine-induced intracellular calcium elevation by FLIPR assay; format: functional, cell-based
T4 sequence (Q91ZY2 whole entry): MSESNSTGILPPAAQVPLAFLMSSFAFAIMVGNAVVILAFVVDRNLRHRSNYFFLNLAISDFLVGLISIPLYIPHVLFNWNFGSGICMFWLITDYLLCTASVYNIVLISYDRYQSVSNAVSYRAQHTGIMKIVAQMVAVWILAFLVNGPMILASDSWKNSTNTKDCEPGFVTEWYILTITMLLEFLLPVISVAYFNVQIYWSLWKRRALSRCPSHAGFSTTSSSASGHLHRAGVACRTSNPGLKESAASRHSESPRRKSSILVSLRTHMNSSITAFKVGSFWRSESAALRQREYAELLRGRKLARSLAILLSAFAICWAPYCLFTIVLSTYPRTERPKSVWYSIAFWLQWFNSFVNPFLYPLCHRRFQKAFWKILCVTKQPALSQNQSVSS

[20] = Selectivity ratio of Ki for human histamine H4 receptor to Ki for 5HT1D receptor
Histamine H4 receptor [21] = target: T3, Histamine H4 receptor; assay: Displacement of [3H]histamine from human histamine H4 receptor expressed in HEK293 cells; format: cell-based; conditions: read-out: Ki
Homo sapiens = species on record: Homo sapiens; assay: Selectivity ratio of Ki for human histamine H4 receptor to Ki for human histamine H3 receptor
Rattus norvegicus [22] = assay: Antinociceptive efficacy in spinal nerve ligated Sprague-Dawley rat assessed as reduction of neuropathic pain in left side paw at 300 umol/kg, ip administered 30 mins before testing relative to control; format: functional
Mus musculus [23] = assay: Inhibition of clobenpropit-induced itching in ip dosed CD1/ICR mouse assessed as blockade of scratching in hind paw for 25 mins pretreated 30 mins before clobenpropit challenge; format: functional
[24] = target: Cannabinoid receptor 2 (Homo sapiens) (UniProt P34972); assay: Binding affinity to CB2 receptor
[25] = target: Kappa-type opioid receptor (Homo sapiens) (UniProt P41145); assay: Binding affinity to kappa opioid receptor
[26] = Ratio of drug level in brain to plasma in rat at 10 mg/kg, iv after 30 mins; format: ADME, organism-based; parameters: dose 10 mg/kg, route intravenous
BMMC = assay: Blockade of histamine-induced morphological changes in BALB/c mouse BMMC by flow cytometry; format: functional, cell-based
Rattus norvegicus [27] = assay: Antinociceptive efficacy in rat assessed as inhibition of carrageenan-induced inflammatory pain in paw at 100 umol/kg, ip after 30 mins by hotbox assay relative to control; format: functional
[28] = target: Delta-type opioid receptor (Homo sapiens) (UniProt P41143); assay: Binding affinity to delta opioid receptor
[29] = Protein binding in human; format: ADME, organism-based; conditions: in vivo, read-out: PB (converted)
Cytochrome P450 2C9 = Cytochrome P450 2C9 (Homo sapiens, UniProt P11712); assay: Inhibition of CYP2C9 upto 10 uM; format: ADME
Liver microsomes [30] = assay: Metabolic stability in human liver microsomes; format: ADME, Microsome
Rattus norvegicus [31] = assay: Antinociceptive efficacy in ip dosed rat assessed as inhibition of carrageenan-induced inflammatory pain in paw after 30 mins by hotbox assay relative to control; format: functional
Rattus norvegicus [32] = assay: Antinociceptive efficacy in spinal nerve ligated Sprague-Dawley rat assessed as reduction of neuropathic pain in left side paw at 500 umol/kg, ip administered 30 mins before testing relative to control; format: functional

T2 sequence (Q91ZY1 whole entry): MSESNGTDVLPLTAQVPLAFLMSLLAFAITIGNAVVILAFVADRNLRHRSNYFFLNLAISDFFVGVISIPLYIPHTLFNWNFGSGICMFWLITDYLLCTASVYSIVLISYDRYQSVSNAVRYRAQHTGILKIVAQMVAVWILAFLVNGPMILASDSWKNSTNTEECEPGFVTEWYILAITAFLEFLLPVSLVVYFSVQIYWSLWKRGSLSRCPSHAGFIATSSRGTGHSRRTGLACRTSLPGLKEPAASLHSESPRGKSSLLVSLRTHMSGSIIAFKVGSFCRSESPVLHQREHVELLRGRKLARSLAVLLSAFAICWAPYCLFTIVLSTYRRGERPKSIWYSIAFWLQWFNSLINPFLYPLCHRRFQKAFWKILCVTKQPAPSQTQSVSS
T3 sequence (Q9H3N8 whole entry): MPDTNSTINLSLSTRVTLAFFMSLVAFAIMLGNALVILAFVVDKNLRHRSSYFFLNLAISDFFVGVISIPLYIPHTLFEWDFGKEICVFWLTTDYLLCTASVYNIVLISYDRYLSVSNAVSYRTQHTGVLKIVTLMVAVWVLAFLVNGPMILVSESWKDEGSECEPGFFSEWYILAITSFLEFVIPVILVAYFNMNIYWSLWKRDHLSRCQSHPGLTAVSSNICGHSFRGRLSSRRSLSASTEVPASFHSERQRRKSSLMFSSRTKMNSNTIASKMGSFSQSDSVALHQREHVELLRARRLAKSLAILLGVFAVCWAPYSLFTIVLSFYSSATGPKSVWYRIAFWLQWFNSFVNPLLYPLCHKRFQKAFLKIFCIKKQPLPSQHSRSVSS
Chain of Cytochrome P450 2C9 (P11712 whole entry): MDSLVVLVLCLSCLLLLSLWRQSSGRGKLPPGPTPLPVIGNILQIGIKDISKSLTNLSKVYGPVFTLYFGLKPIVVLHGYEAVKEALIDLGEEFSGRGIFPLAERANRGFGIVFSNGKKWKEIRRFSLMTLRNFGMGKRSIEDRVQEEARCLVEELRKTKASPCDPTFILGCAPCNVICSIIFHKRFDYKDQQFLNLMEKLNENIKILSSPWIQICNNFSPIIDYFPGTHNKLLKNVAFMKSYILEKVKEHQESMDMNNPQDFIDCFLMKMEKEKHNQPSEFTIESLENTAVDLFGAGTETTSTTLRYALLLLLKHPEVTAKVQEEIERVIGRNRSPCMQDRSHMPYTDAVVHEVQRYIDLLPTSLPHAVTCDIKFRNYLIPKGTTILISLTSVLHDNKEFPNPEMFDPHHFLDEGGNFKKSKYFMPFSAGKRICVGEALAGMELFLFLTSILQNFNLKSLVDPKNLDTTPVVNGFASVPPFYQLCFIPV
Chain of Cytochrome P450 2D6 (P10635 whole entry): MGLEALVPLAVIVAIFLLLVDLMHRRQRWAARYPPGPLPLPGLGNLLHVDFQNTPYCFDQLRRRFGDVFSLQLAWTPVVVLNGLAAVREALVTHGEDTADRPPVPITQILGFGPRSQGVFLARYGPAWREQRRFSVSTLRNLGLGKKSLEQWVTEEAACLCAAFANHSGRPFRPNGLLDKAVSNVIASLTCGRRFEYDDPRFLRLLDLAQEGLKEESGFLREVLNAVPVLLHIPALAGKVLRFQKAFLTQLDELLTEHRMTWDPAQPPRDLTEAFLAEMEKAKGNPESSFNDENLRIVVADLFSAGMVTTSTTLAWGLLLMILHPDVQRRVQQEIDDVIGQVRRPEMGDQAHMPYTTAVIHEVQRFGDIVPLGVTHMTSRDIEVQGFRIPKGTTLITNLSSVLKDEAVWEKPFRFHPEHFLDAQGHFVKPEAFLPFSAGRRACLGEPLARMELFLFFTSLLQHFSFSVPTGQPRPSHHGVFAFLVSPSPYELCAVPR
Chain of Kappa-type opioid receptor (Homo sapiens) (P41145 whole entry): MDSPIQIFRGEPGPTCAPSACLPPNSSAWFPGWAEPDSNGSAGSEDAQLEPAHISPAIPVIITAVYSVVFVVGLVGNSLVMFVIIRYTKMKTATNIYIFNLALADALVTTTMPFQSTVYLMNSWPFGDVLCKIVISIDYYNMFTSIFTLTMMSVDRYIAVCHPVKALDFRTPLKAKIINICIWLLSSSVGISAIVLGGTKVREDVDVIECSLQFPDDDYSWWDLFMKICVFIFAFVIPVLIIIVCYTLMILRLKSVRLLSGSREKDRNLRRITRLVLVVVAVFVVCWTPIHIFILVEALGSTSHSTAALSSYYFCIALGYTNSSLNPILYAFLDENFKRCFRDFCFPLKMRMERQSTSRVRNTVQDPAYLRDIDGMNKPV
Chain of Cytochrome P450 3A4 (P08684 whole entry): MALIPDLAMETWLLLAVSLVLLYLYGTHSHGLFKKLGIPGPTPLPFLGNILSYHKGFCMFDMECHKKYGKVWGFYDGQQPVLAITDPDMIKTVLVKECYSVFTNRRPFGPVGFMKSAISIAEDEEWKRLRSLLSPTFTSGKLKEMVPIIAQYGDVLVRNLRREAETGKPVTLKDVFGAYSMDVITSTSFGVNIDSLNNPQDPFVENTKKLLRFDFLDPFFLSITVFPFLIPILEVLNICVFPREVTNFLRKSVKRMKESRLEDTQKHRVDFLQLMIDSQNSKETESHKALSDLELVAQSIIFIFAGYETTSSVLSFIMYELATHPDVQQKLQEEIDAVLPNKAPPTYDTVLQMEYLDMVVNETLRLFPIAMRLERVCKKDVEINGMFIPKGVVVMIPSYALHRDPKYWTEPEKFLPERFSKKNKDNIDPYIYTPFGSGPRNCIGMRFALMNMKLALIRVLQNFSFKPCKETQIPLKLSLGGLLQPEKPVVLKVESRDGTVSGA
Chain of Delta-type opioid receptor (Homo sapiens) (P41143 whole entry): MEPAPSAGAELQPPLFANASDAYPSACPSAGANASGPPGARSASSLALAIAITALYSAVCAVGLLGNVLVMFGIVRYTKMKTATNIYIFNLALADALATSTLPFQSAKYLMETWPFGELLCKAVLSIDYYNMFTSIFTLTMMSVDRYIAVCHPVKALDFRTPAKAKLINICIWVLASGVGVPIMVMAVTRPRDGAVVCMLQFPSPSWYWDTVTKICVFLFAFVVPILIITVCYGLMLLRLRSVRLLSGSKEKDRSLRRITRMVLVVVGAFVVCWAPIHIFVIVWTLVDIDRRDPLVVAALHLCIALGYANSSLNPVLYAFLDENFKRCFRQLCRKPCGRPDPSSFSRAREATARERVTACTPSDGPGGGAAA
Chain of Cannabinoid receptor 1 (Homo sapiens) (P21554 whole entry): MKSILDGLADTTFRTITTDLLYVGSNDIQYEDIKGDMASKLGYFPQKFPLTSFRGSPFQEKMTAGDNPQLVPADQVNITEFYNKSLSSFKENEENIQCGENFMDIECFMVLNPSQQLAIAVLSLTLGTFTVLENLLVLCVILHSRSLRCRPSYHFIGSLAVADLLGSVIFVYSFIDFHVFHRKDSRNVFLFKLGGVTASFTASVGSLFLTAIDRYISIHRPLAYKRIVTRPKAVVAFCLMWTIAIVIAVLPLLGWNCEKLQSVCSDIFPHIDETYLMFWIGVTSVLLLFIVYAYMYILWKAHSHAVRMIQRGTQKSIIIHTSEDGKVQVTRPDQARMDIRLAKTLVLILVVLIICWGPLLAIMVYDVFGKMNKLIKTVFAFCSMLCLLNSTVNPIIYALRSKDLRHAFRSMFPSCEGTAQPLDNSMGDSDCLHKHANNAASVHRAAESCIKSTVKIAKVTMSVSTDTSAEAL
Chain of Prostaglandin G/H synthase 1 (Homo sapiens) (P23219 whole entry): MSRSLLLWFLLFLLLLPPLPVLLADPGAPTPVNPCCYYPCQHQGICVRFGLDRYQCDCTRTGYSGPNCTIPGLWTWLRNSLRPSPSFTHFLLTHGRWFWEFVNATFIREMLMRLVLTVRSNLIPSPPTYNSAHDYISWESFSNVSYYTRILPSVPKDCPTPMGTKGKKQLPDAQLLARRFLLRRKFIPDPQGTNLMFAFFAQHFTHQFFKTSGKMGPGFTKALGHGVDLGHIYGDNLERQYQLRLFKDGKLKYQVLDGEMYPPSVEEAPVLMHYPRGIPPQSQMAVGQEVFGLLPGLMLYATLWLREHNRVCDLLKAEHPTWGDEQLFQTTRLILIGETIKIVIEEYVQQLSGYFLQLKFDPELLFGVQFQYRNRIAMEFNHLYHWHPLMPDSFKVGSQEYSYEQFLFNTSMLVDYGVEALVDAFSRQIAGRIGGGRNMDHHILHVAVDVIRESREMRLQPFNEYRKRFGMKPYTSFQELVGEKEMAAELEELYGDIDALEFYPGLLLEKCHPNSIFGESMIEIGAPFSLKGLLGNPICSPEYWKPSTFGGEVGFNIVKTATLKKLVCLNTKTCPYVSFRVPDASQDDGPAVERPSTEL
Chain of Cannabinoid receptor 2 (Homo sapiens) (P34972 whole entry): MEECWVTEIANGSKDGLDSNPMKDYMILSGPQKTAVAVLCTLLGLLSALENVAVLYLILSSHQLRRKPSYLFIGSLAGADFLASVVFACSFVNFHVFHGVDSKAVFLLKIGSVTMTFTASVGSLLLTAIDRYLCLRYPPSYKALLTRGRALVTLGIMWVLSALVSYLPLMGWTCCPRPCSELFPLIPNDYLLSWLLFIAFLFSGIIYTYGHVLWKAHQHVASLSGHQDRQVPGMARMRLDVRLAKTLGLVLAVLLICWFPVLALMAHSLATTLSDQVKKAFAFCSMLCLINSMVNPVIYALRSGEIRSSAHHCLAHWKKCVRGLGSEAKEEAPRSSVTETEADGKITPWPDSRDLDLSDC
Chain of Mu-type opioid receptor (Homo sapiens) (P35372 whole entry): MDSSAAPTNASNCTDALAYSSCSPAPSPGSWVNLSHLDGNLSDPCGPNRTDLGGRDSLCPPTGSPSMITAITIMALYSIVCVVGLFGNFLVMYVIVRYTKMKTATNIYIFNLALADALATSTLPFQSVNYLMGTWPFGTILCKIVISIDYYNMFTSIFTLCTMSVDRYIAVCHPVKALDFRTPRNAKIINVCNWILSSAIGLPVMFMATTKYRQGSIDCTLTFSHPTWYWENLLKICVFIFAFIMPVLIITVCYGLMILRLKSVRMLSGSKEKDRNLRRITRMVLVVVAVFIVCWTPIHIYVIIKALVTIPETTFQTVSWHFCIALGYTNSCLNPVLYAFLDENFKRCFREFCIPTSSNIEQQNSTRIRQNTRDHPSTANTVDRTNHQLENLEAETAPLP

## CNC1CN(c2nc(N)nc3c2CCCc2ccccc2-3)C1
Rattus norvegicus [1]
  Efficacy: 36%
Cytochrome P450 3A4
  Activity: Not Active
Liver microsomes [2]
  Stability: 165 pmol/min/mg
[3]
  Activity: inactive
[4]
  Ratio Ki: 123
Mus musculus [5]
  ED50: 17 µmol/kg
[6]
  Ratio Ki: > 610
[7]
  fraction unbound: 0.56
[8]
  Ratio Ki: > 860
[9]
  Stability: 38.8 pmol/min/mg
[10]
  Ratio Ki: 235
[11]
  Activity: inactive
Histamine H4 receptor [12]
  EC50: 9.33 nM
Histamine H4 receptor [13]
  Ki: 3.63 nM
Histamine H4 receptor [14]
  pKb: 8.05
[15]
  Ratio Ki: 940
[16]
  Ratio Ki: 215
[17]
  Activity: inactive
[18]
  Activity: inactive
Cytochrome P450 2D6
  Activity: Not Active
Histamine H4 receptor [19]
  EC50: 9.12 nM
[20]
  Ratio Ki: 310
Histamine H4 receptor [21]
  Ki: 11 nM
Homo sapiens
  Ratio Ki: 93
Rattus norvegicus [22]
  Efficacy: 78%
Mus musculus [23]
  ED50: 25 µmol/kg
[24]
  Activity: inactive
[25]
  Activity: inactive
[26]
  Kp at 0.5 h: 5.8
BMMC
  Activity: Active
Rattus norvegicus [27]
  Efficacy: 39%
[28]
  Activity: inactive
[29]
  fraction unbound: 0.52
Cytochrome P450 2C9
  Activity: Not Active
Liver microsomes [30]
  Stability: 20 pmol/min/mg

## O=C(O)Cc1ccccc1Nc1c(Cl)cccc1Cl [DICLOFENAC]
Rattus norvegicus [31]
  Efficacy: 91%

## NCC1(CC(=O)O)CCCCC1 [GABAPENTIN]
Rattus norvegicus [32]
  Efficacy: 62%
